Drawing on ChEMBL document CHEMBL4049409, “Structure-based discovery of LpxC inhibitors” (Bioorg Med Chem Lett, 2017), this text covers IC50 and MIC for 19 molecules.

Usually IC50 stands for the midpoint of a concentration-inhibition curve. A lower IC50 goes with inhibition by little substance. A word on the MIC: it is the smallest concentration in the dilution series that meets the test's criterion for growth inhibition. Low readings indicate greater potency, high ones weaker potency.

Values after ≈ are worked out from the molar mass of the structure shown.

Experiment [1] in a line: Inhibition of LpxC in Acinetobacter baumannii focus ID 961025.
The test system of experiment [2] is Pseudomonas aeruginosa. As to the kind of experiment: Antibacterial activity against Pseudomonas aeruginosa isolate 44 ATCC 27853. The class given is functional.
For experiment [3], the target named is T1, UDP-3-O-acyl-N-acetylglucosamine deacetylase (Escherichia coli K-12, UniProt P0A725).
T1 sequence (P0A725 whole entry): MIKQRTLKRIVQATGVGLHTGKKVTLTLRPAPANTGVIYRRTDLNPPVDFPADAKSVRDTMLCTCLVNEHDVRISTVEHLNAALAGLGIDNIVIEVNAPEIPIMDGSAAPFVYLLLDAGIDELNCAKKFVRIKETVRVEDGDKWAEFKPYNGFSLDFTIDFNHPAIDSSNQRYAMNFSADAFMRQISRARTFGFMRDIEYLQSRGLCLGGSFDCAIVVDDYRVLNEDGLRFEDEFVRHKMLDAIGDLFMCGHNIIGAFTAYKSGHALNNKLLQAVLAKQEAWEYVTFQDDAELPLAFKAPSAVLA
Kind of experiment: Inhibition of LpxC in Escherichia coli isolate 35 ATCC 25922. On the set-up: species or system Escherichia coli ATCC 25922.

Experiment [4] concerns the target T2, UDP-3-O-acyl-N-acetylglucosamine deacetylase (Pseudomonas aeruginosa (strain ATCC 15692 / PAO1 / 1C / PRS 101 / LMG12228), UniProt P47205).
T2 sequence (P47205 whole entry): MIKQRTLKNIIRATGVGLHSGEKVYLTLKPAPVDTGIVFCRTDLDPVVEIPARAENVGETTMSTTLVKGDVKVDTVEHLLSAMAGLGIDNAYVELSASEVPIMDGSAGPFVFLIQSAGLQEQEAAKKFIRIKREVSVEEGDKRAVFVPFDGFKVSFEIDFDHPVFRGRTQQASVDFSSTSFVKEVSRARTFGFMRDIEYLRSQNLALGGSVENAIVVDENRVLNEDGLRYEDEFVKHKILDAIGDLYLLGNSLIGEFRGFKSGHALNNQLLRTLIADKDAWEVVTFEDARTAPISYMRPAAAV
As to the kind of experiment: Inhibition of LpxC in Pseudomonas aeruginosa isolate 44 ATCC 27853.

Experiment [5] relates to Acinetobacter baumannii. Kind of experiment: Antibacterial activity against Acinetobacter baumannii focus ID 961025. The format is functional.
For experiment [6], the system named is Klebsiella pneumoniae. Kind of experiment: Antibacterial activity against Klebsiella pneumoniae isolate 21 ATCC 4352. The class given is functional.
The subject of experiment [7] is Escherichia coli. Kind of experiment: Antibacterial activity against Escherichia coli isolate 35 ATCC 25922. The class given is functional.
Experiment [8] can be described thus: Inhibition of LpxC in Klebsiella pneumoniae isolate 21 ATCC 4352.
Experiment [9] relates to Pseudomonas aeruginosa. Kind of experiment: Antibacterial activity against Pseudomonas aeruginosa isolate 839 harboring mexAB-oprM deletion mutant. The class given is functional.

Consider `C[C@@H](O)[C@H](NC1CN(C)Cc2cc(C#Cc3ccccc3)ccc21)C(=O)NO` (stereo not given in full), for which the IC50 stood at 310 nM in experiment [1], 28 nM in experiment [3], 108 nM in experiment [4] and 18 nM in experiment [8]. Moreover, the MIC in experiment [2] was above 128 µg/mL; in experiment [5] it was above 128 µg/mL; in [6], 0.5 µg/mL (≈ 1.32 µM); in experiment [7] it was 2 µg/mL (≈ 5.27 µM).

For `C[C@@H](O)[C@H](NC1CCCCc2cc(C#Cc3ccccc3)ccc21)C(=O)NO` (stereo not given in full), the concentration for half-maximal inhibition (IC50) in [1] stood at 1160 nM; in experiment [3] it was 109 nM; in [4], 333 nM; in experiment [8] it was 72 nM. For the same molecule, the MIC was above 128 µg/mL in experiment [2], above 128 µg/mL in [5], 2 µg/mL (≈ 5.28 µM) in experiment [6] and 16 µg/mL (≈ 42.3 µM) in experiment [7].

Take `C[C@@H](O)[C@H](NC1CCc2cc(C#Cc3ccccc3)ccc21)C(=O)NO` (stereo not given in full): the IC50 in experiment [1] was determined as 165 nM; in experiment [3], 7 nM; in experiment [4] it was 20 nM; in experiment [8], 5 nM. Also, the MIC in experiment [2] turned out to be 32 µg/mL (≈ 91.3 µM); in experiment [5], 16 µg/mL (≈ 45.7 µM); in experiment [6], 0.125 µg/mL (≈ 0.357 µM); in experiment [7], 0.5 µg/mL (≈ 1.43 µM).

As for `C[C@@H](O)[C@H](NC1COCc2cc(C#Cc3ccccc3)ccc21)C(=O)NO` (stereo not given in full), the IC50 in experiment [1] was determined as 49 nM; in experiment [3], 2 nM; in experiment [4], 14 nM; in [8], 1 nM. The MIC in [2] was 64 µg/mL (≈ 175 µM); in experiment [5], 32 µg/mL (≈ 87.3 µM); in [6], below 0.125 µg/mL; in experiment [7] it was 0.25 µg/mL (≈ 0.682 µM).

As for `CCC(N[C@H](C(=O)NO)[C@@H](C)O)c1ccc(C#Cc2ccccc2)cc1` (stereo not given in full), the 50% inhibitory concentration (IC50) in experiment [1] was determined as 566 nM; in experiment [3], 215 nM; in experiment [4], 214 nM; in [8], 120 nM. Further, the minimum inhibitory concentration (MIC) in experiment [2] is above 64 µg/mL; in experiment [5], above 64 µg/mL; in [6] it was 2 µg/mL (≈ 5.67 µM); in [7] it was 4 µg/mL (≈ 11.3 µM).

Consider `CCCCC(N[C@H](C(=O)NO)[C@@H](C)O)c1ccc(C#Cc2ccccc2)cc1` (stereo not given in full), for which the IC50 in [1] is 1460 nM; in [3], 534 nM; in experiment [4], 616 nM; in experiment [8], 724 nM. The minimal inhibitory concentration (MIC) in experiment [2] is above 128 µg/mL; in experiment [5] it was above 128 µg/mL; in experiment [6] it was 2 µg/mL (≈ 5.26 µM); in experiment [7], 64 µg/mL (≈ 168 µM).

Regarding `C[C@@H](O)[C@H](NC1CCOc2cc(C#Cc3ccc(CN4CCOCC4)cc3)ccc21)C(=O)NO` (stereo not given in full), the IC50 stood at 83 nM in [1], 1 nM in experiment [3], 6 nM in experiment [4] and 2 nM in experiment [8]. In addition, the MIC in experiment [2] is 16 µg/mL (≈ 34.4 µM); in experiment [5] it was 64 µg/mL (≈ 137 µM); in experiment [6] it was below 0.125 µg/mL; in experiment [7], 2 µg/mL (≈ 4.3 µM).

On to `C[C@@H](O)[C@H](N[C@H]1CCc2cc(C#Cc3ccc(CN4CC(O)C4)cc3)ccc21)C(=O)NO`, for which the MIC in experiment [2] came to 4 µg/mL (≈ 9.18 µM); in experiment [6], 0.125 µg/mL (≈ 0.287 µM); in experiment [9], 0.5 µg/mL (≈ 1.15 µM); in experiment [7] it was 4 µg/mL (≈ 9.18 µM). Moreover, the IC50 in experiment [3] was found to be 127 nM; in experiment [4], 63 nM.

Turning to `C[C@@H](O)[C@H](NC1COCc2cc(C#Cc3ccc(CN4CCOCC4)cc3)ccc21)C(=O)NO` (stereo not given in full), the half-maximal inhibitory concentration (IC50) in [1] stood at 25 nM; in experiment [3], 1 nM; in experiment [4] it was 6 nM; in [8], 1 nM. In addition, the MIC was 64 µg/mL (≈ 137 µM) in [2], 64 µg/mL (≈ 137 µM) in experiment [5], below 0.125 µg/mL in experiment [6] and 0.25 µg/mL (≈ 0.537 µM) in experiment [7].

As for `C[C@@H](O)[C@H](NC1CCCc2cc(C#Cc3ccccc3)ccc21)C(=O)NO` (stereo not given in full), the 50% inhibitory concentration (IC50) in experiment [1] was 40 nM; in experiment [3], 1 nM; in experiment [4], 5 nM; in experiment [8], 0.2 nM. Moreover, the MIC in experiment [2] stood at 32 µg/mL (≈ 87.8 µM); in experiment [5], 16 µg/mL (≈ 43.9 µM); in experiment [6] it was 0.25 µg/mL (≈ 0.686 µM); in experiment [7], 1 µg/mL (≈ 2.74 µM).

In the case of `C[C@@H](O)[C@H](NCc1ccc(C#Cc2ccccc2)cc1)C(=O)NO`, the IC50 came to 17 nM in experiment [1], 67 nM in experiment [3], 20 nM in experiment [4] and 48 nM in experiment [8]. Moreover, the minimum inhibitory concentration (MIC) in experiment [2] is above 128 µg/mL; in [5] it was 32 µg/mL (≈ 98.6 µM); in experiment [6] it was 0.5 µg/mL (≈ 1.54 µM); in experiment [7] it was 4 µg/mL (≈ 12.3 µM).

For the molecule `CC(N[C@H](C(=O)NO)[C@@H](C)O)c1ccc(C#Cc2ccccc2)cc1` (stereo not given in full), the half-inhibitory concentration (IC50) was 160 nM in [1], 96 nM in experiment [3], 72 nM in experiment [4] and 64 nM in [8]. The minimal inhibitory concentration (MIC) is above 64 µg/mL in experiment [2], 64 µg/mL (≈ 189 µM) in [5], 1 µg/mL (≈ 2.96 µM) in experiment [6] and 4 µg/mL (≈ 11.8 µM) in experiment [7].

For `C[C@@H](O)[C@H](NC1CCN(C)c2cc(C#Cc3ccc(CN4CCOCC4)cc3)ccc21)C(=O)NO` (stereo not given in full), the concentration for half-maximal inhibition (IC50) in experiment [1] stood at 331 nM; in [3] it was 2 nM; in experiment [4], 18 nM; in experiment [8] it was 2 nM. Also, the minimal inhibitory concentration (MIC) in experiment [2] is above 32 µg/mL; in experiment [5], above 32 µg/mL; in [6], 0.125 µg/mL (≈ 0.261 µM); in experiment [7] it was 2 µg/mL (≈ 4.18 µM).

In the case of `C[C@@H](O)[C@H](N[C@@H]1CCc2cc(C#Cc3ccc(CN4CCOCC4)cc3)ccc21)C(=O)NO`, the IC50 in experiment [1] is 1990 nM; in experiment [3], 3 nM; in experiment [4], 8 nM; in [8] it was 7 nM. Further, the MIC in [2] was found to be 128 µg/mL (≈ 285 µM); in experiment [5] it was 64 µg/mL (≈ 142 µM); in experiment [6] it was 0.125 µg/mL (≈ 0.278 µM); in experiment [7], 0.5 µg/mL (≈ 1.11 µM).

Regarding `C[C@@H](O)[C@H](NC1CCc2cc(C#Cc3ccc(CN4CCOCC4)cc3)ccc21)C(=O)NO` (stereo not given in full), the IC50 in experiment [1] worked out at 382 nM; in [3], 2 nM; in [4], 4 nM; in experiment [8] it was 2 nM. Moreover, the MIC is 8 µg/mL (≈ 17.8 µM) in experiment [2], above 64 µg/mL in experiment [5], 0.125 µg/mL (≈ 0.278 µM) in experiment [6] and 0.25 µg/mL (≈ 0.556 µM) in experiment [7].

As for `C[C@@H](O)[C@H](NC1CCN(C)c2cc(C#Cc3ccccc3)ccc21)C(=O)NO` (stereo not given in full), the 50% inhibitory concentration (IC50) was 124 nM in [1], 2 nM in experiment [3], 15 nM in experiment [4] and 4 nM in [8]. In addition, the MIC is above 128 µg/mL in [2], above 128 µg/mL in [5], 1 µg/mL (≈ 2.64 µM) in experiment [6] and 8 µg/mL (≈ 21.1 µM) in experiment [7].

For the molecule `CCCC(N[C@H](C(=O)NO)[C@@H](C)O)c1ccc(C#Cc2ccccc2)cc1` (stereo not given in full), the half-maximal inhibitory concentration (IC50) in experiment [1] was determined as 273 nM; in experiment [3], 60 nM; in experiment [4], 50 nM; in experiment [8], 53 nM. In addition, the minimum inhibitory concentration (MIC) in experiment [2] is 64 µg/mL (≈ 175 µM); in [5] it was 32 µg/mL (≈ 87.3 µM); in experiment [6], 0.25 µg/mL (≈ 0.682 µM); in experiment [7], 2 µg/mL (≈ 5.46 µM).

For `C[C@@H](O)[C@H](NC1CCOc2cc(C#Cc3ccccc3)ccc21)C(=O)NO` (stereo not given in full), the half-inhibitory concentration (IC50) is 36 nM in experiment [1], 11 nM in experiment [3], 13 nM in experiment [4] and 8 nM in experiment [8]. The minimal inhibitory concentration (MIC) is 128 µg/mL (≈ 349 µM) in [2], 32 µg/mL (≈ 87.3 µM) in experiment [5], below 0.125 µg/mL in experiment [6] and 2 µg/mL (≈ 5.46 µM) in experiment [7].

`C[C@@H](O)[C@H](NC1CCCc2cc(C#Cc3ccc(CN4CCOCC4)cc3)ccc21)C(=O)NO` (stereo not given in full): the 50% inhibitory concentration (IC50) in experiment [1] stood at 80 nM; in experiment [3] it was 0.3 nM; in experiment [4], 2 nM; in experiment [8], 0.2 nM. In addition, the minimum inhibitory concentration (MIC) was 32 µg/mL (≈ 69 µM) in experiment [2], 128 µg/mL (≈ 276 µM) in experiment [5], below 0.125 µg/mL in experiment [6] and 0.25 µg/mL (≈ 0.539 µM) in experiment [7].
